Results on three molecules are retold here after patent publication US11345670B2, “Heterocyclic compounds for cancer imaging and treatment and methods for their use” (The University of British Columbia, priority 2015, dated 2022).

What is called IC50 is the point on the concentration scale where inhibition reaches its midpoint.

For this assay, the system named is androgen receptor (AR). As to the kind of experiment: PSA (6.1 kb)-luciferase reporter assay in LNCaP cells induced with R1881. The class given is cell-based. As to conditions: Homo sapiens; LNCaP cells transiently transfected with PSA (6.1 kb)-luciferase; 1 h pre-treatment with compound, then R1881 (1 nM) for 24 h; value with standard error. The method, then:
LNCaP cells were transiently transfected with PSA (6.1 kb)-luciferase for 24 h prior to pre-treatment with compounds of the invention (e.g., compounds 1a, 9, 13) ranging in concentration from 62.5 ng/ml to 1.5 ug/ml for 1 hour before the addition of vehicle, or synthetic androgen, R1881 (1 nM) to induce luciferase production. After 24 h of incubation with R1881, the cells were harvested, and relative luciferase activities were determined. To determine the IC50, treatments were normalized to the predicted maximal activity induction (in the absence of test compounds, vehicle only).
For `CC(C)(c1ccc(OCC(O)CCl)cc1)c1ccc(OCC(O)Cn2ccnc2)cc1` (stereo not drawn) [Compound 9, 1-chloro-3-(4-(2-(4-(2-hydroxy-3-(1H-imidazol-1-yl)propoxy)phenyl)propan-2-yl)phenoxy)propan-2-ol], the IC50 turned out to be 8.45 µM.

On to `CC(C)(c1ccc(OCC(O)CCl)cc1)c1ccc(OCC(O)CN2CCOCC2)cc1` (stereo not drawn) [Compound 13, 1-chloro-3-(4-(2-(4-(2-hydroxy-3-morpholinopropoxy)phenyl)propan-2-yl)phenoxy)propan-2-ol], for which the IC50 was 12.8 µM.

Consider `CC(C)(c1ccc(OC[C@H](O)CCl)cc1)c1ccc(OC[C@H](O)Cn2nnc(CO)c2I)cc1` [Compound 1a, (S)-1-chloro-3-(4-(2-(4-((R)-2-hydroxy-3-(4-(hydroxymethyl)-5-iodo-1H-1,2,3-triazol-1-yl)propoxy)phenyl)propan-2-yl)phenoxy)propan-2-ol], for which the IC50 came out at 3.23 µM.
